# From patent publication US12180193B2, “Accelerating fibrosarcoma protein degrading compounds and associated methods of use” (Arvinas Operations, Inc., priority 2020, dated 2024)
# How the values were obtained:
# BRAF G466V = target: T1, BRAF G466V (Homo sapiens, UniProt P15056, G466V); experiment: Cellular assay of target protein degradation, T-Rex 293 cells stably transfected with HA-BRAF G466V (HA immunofluorescence, high content imaging); assay type: cell-based; details: T-Rex 293 HA-BRAF G466V; for DC50: half maximal degradation, read-out: BRaf G466V DC50; for Dmax: maximum degradation observed
# T1 construct: expressed in transfected cells
# How it was run: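 Read-out is HA immunofluorescence by high content imaging, with Hoechst and phalloidin co-staining, giving DC50 and Dmax as a percentage of control. Compound exposure lasts 24 hours at 37° C over 30 nM to 3 pM in 0.1% DMSO, with doxycycline-induced HA-BRAF G466V.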
# BRAF V600E = target: T2, BRAF V600E (Homo sapiens, UniProt P15056, V600E); experiment: Cellular assay of target protein degradation, T-Rex 293 cells stably transfected with HA-BRAF_V600E (HA immunofluorescence, high content imaging); assay type: cell-based; details: T-Rex 293 HA-BRAF V600E; for DC50: half maximal degradation, read-out: BRaf V600E DC50; for Dmax: maximum degradation observed
# T2 construct: expressed in transfected cells
# How it was run: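 Cells are plated with 1 ng/mL doxycycline and grown 24 h. Compound is then added (final 1 μM–0.1 nM, 0.1% DMSO) for another 24 h at 37 °C, followed by fixing, HA immunostaining and imaging to obtain DC50 and Dmax.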
# T2 sequence (P15056 whole entry V600E): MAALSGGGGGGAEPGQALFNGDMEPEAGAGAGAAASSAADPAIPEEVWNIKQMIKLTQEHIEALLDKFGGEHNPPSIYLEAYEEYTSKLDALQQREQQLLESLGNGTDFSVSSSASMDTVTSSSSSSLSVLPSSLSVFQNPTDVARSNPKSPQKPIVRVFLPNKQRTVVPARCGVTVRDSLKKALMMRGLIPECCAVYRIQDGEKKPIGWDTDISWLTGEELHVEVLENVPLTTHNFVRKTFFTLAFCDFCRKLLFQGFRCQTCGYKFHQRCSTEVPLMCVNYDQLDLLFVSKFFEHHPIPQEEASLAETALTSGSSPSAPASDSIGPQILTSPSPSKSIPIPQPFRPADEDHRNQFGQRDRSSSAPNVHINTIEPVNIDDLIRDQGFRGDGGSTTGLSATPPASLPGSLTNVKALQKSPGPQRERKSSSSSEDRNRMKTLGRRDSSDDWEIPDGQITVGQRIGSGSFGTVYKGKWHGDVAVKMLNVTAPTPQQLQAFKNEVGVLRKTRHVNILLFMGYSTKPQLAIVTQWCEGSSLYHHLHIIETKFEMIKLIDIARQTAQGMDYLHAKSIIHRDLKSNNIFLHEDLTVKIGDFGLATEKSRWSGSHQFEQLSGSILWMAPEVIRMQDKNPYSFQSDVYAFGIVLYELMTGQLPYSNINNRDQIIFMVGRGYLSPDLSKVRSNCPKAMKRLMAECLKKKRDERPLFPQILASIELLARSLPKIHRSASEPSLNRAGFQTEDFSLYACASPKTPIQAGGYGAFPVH
# T1 sequence (P15056 whole entry G466V): as the sequence (P15056 whole entry V600E) above, with G466V, E600V counted along it
Compound,DC50 (BRAF G466V) [nM],Dmax (BRAF G466V) [%],DC50 (BRAF V600E) [nM],Dmax (BRAF V600E) [%]
"COc1cc(N2CCC(CN3CC4(C3)CN(c3ccc(-c5cnc6[nH]cc(C(=O)c7c(F)ccc(NS(=O)(=O)N8CCC(F)(F)C8)c7F)c6c5)cc3)C4)CC2)cc2c1C(=O)N(C1CCC(=O)NC1=O)C2 (centres unmarked) [Compound 247, N-[3-(5-{4-[6-({1-[2-(2,6-dioxopiperidin-3-yl)-7-methoxy-1-oxo-2,3-dihydro-1H-isoindol-5-yl]piperidin-4-yl}methyl)-2,6-diazaspiro[3.3]heptan-2-yl]phenyl}-1H-pyrrolo[2,3-b]pyridine-3-carbonyl)-2,4-difluorophenyl]-3,3-difluoropyrrolidine-1-sulfonamide]",1 to 10,> 70,5 to 50,< 35
"O=C1CCC(N2Cc3cc(CCCN4CC5(C4)CN(c4ccc(-c6cnc7[nH]cc(C(=O)c8c(F)ccc(NS(=O)(=O)N9CC[C@@H](F)C9)c8F)c7c6)cn4)C5)ccc3C2=O)C(=O)N1 (stereo partly drawn) [Compound 141, (3R)-N-(3-{5-[6-(6-{3-[2-(2,6-dioxopiperidin-3-yl)-1-oxo-2,3-dihydro-1H-isoindol-5-yl]propyl}-2,6-diazaspiro[3.3]heptan-2-yl)pyridin-3-yl]-1H-pyrrolo[2,3-b]pyridine-3-carbonyl}-2,4-difluorophenyl)-3-fluoropyrrolidine-1-sulfonamide]",1 to 10,> 70,5 to 50,35 to 70
"O=C1CCC(N2Cc3cc(OC[C@@H](O)CN4CC5(C4)CN(c4ccc(-c6cnc7[nH]cc(C(=O)c8c(F)ccc(NS(=O)(=O)N9CC[C@@H](F)C9)c8F)c7c6)cc4)C5)ccc3C2=O)C(=O)N1 (stereo partly drawn) [Compound 122, (3R)-N-{3-[5-(4-{6-[(2S)-3-{[2-(2,6-dioxopiperidin-3-yl)-1-oxo-2,3-dihydro-1H-isoindol-5-yl]oxy}-2-hydroxypropyl]-2,6-diazaspiro[3.3]heptan-2-yl}phenyl)-1H-pyrrolo[2,3-b]pyridine-3-carbonyl]-2,4-difluorophenyl}-3-fluoropyrrolidine-1-sulfonamide]",1 to 10,> 70,5 to 50,35 to 70
"COc1cc([C@@H](O)CCN2CCN(c3ccc(-c4cnc5[nH]cc(C(=O)c6c(F)ccc(NS(=O)(=O)N7CC[C@@H](F)C7)c6F)c5c4)cc3)CC2)cc2c1C(=O)N([C@H]1CCC(=O)NC1=O)C2 (stereo in doubt) [Compound 295, (3R)-N-{3-[5-(4-{4-[(3S)-3-{2-[(3S)-2,6-dioxopiperidin-3-yl]-7-methoxy-1-oxo-2,3-dihydro-1H-isoindol-5-yl}-3-hydroxypropyl]piperazin-1-yl}phenyl)-1-pyrrolo[2,3-b]pyridine-3-carbonyl]-2,4-difluorophenyl}-3-fluoropyrrolidine-1-sulfonamide]",1 to 10,35 to 70,50 to 500,35 to 70
"O=C1CCC(N2Cc3cc(OCCN4CC5(C4)CN(c4ccc(-c6cnc7[nH]cc(C(=O)c8c(F)ccc(NS(=O)(=O)N9CC[C@@H](F)C9)c8F)c7c6)cc4)C5)ccc3C2=O)C(=O)N1 (stereo partly drawn) [Compound 89, (3R)-N-[3-(5-{4-[6-(2-{[2-(2,6-dioxopiperidin-3-yl)-1-oxo-2,3-dihydro-1H-isoindol-5-yl]oxy}ethyl)-2,6-diazaspiro[3.3]heptan-2-yl]phenyl}-1H-pyrrolo[2,3-b]pyridine-3-carbonyl)-2,4-difluorophenyl]-3-fluoropyrrolidine-1-sulfonamide]",< 1,35 to 70,< 5,35 to 70

# Second part, the compound after the results:
DC50 (BRAF G466V) [nM],Dmax (BRAF G466V) [%],DC50 (BRAF V600E) [nM],Dmax (BRAF V600E) [%],Compound
1 to 10,> 70,5 to 50,< 35,"O=C1CCC(c2ccc(C3CCN(CCC4CCN(c5ccc(-c6cnc7[nH]cc(C(=O)c8c(F)ccc(NS(=O)(=O)N9CC[C@@H](F)C9)c8F)c7c6)cc5)CC4)CC3)cc2F)C(=O)N1 (stereo partly drawn) [Compound 178, (3R)-N-[3-(5-{4-[4-(2-{4-[4-(2,6-dioxopiperidin-3-yl)-3-fluorophenyl]piperidin-1-yl}ethyl)piperidin-1-yl]phenyl}-1H-pyrrolo[2,3-b]pyridine-3-carbonyl)-2,4-difluorophenyl]-3-fluoropyrrolidine-1-sulfonamide]"
< 1,> 70,< 5,35 to 70,"O=C1CC[C@H](N2Cc3cc(C4CCN(CC5CCN(c6ccc(-c7cnc8[nH]cc(C(=O)c9c(F)ccc(NS(=O)(=O)N%10CC[C@@H](F)C%10)c9F)c8c7)cc6F)CC5)CC4)ccc3C2=O)C(=O)N1 [Compound 87, (3R)-N-{3-[5-(4-{4-[(4-{2-[(3S)-2,6-dioxopiperidin-3-yl]-1-oxo-2,3-dihydro-1H-isoindol-5-yl}piperidin-1-yl)methyl]piperidin-1-yl}-3-fluorophenyl)-1H-pyrrolo[2,3-b]pyridine-3-carbonyl]-2,4-difluorophenyl}-3-fluoropyrrolidine-1-sulfonamide]"
10 to 30,35 to 70,> 500,35 to 70,"O=C1CCC(N2Cc3cc(C4CCN(CC5CCN(c6ccc(-c7cnc8[nH]cc(C(=O)c9c(F)ccc(NS(=O)(=O)N%10CC[C@@H](F)C%10)c9C(F)(F)F)c8c7)cc6)CC5)CC4)ccc3C2=O)C(=O)N1 (stereo partly drawn) [Compound 273, (3R)-N-[3-(5-{4-[4-({4-[2-(2,6-dioxopiperidin-3-yl)-1-oxo-2,3-dihydro-1H-isoindol-5-yl]piperidin-1-yl}methyl)piperidin-1-yl]phenyl}-1H-pyrrolo[2,3-b]pyridine-3-carbonyl)-4-fluoro-2-(trifluoromethyl)phenyl]-3-fluoropyrrolidine-1-sulfonamide]"
1 to 10,> 70,5 to 50,35 to 70,"O=C1CCC(N2Cc3cc(N4CCC(CN5C[C@H]6CCN(c7ccc(-c8cnc9[nH]cc(C(=O)c%10c(F)ccc(NS(=O)(=O)N%11CC[C@@H](F)C%11)c%10F)c9c8)cc7)C[C@H]6C5)CC4)ccc3C2=O)C(=O)N1 (stereo partly drawn) [Compound 3, (3R)-N-[3-(5-{4-[(3aR,7aS)-2-({1-[2-(2,6-dioxopiperidin-3-yl)-1-oxo-2,3-dihydro-1H-isoindol-5-yl)piperidin-4-yl}methyl)-octahydro-1H-pyrrolo[3,4-c]pyridin-5-yl]phenyl}-1H-pyrrolo[2,3-b]pyridine-3-carbonyl)-2,4-difluorophenyl]-3-fluoropyrrolidine-1-sulfonamide]"
1 to 10,> 70,5 to 50,> 70,"O=C1CCC(c2ccc(C3CCN(CC4CCN(c5ccc(-c6cnc7[nH]cc(C(=O)c8c(F)ccc(NS(=O)(=O)N9CC[C@@H](F)C9)c8F)c7c6)cc5)CC4)CC3)cn2)C(=O)N1 (stereo partly drawn) [Compound 365, (3R)-N-[3-(5-{4-[4-({4-[6-(2,6-dioxopiperidin-3-yl)pyridin-3-yl]piperidin-1-yl}methyl)piperidin-1-yl]phenyl}-1H-pyrrolo[2,3-b]pyridine-3-carbonyl)-2,4-difluorophenyl]-3-fluoropyrrolidine-1-sulfonamide]"
1 to 10,35 to 70,5 to 50,< 35,"C[C@H]1CC[C@H](C)N1S(=O)(=O)Nc1ccc(F)c(C(=O)c2c[nH]c3ncc(-c4ccc(N5CCC(CN6CCC(c7ccc8c(c7)CN([C@H]7CCC(=O)NC7=O)C8=O)CC6)CC5)cc4)cc23)c1F [Compound 262, (2S,5S)-N-{3-[5-(4-{4-[(4-{2-[(3S)-2,6-dioxopiperidin-3-yl]-1-oxo-2,3-dihydro-1H-isoindol-5-yl}piperidin-1-yl)methyl]piperidin-1-yl}phenyl)-1H-pyrrolo [2,3-b]pyridine-3-carbonyl]-2,4-difluorophenyl}-2,5-dimethylpyrrolidine-1-sulfonamide]"
